For the test, the target named is T1, oxidosqualene cyclase (Rattus norvegicus, UniProt P48450).
T1 construct: Microsomes, prepared by ultracentrifugation of homogenates of rat liver; from tissue; host or cells: rat liver microsomes plus high speed supernatant fraction
T1 sequence (P48450 1-733): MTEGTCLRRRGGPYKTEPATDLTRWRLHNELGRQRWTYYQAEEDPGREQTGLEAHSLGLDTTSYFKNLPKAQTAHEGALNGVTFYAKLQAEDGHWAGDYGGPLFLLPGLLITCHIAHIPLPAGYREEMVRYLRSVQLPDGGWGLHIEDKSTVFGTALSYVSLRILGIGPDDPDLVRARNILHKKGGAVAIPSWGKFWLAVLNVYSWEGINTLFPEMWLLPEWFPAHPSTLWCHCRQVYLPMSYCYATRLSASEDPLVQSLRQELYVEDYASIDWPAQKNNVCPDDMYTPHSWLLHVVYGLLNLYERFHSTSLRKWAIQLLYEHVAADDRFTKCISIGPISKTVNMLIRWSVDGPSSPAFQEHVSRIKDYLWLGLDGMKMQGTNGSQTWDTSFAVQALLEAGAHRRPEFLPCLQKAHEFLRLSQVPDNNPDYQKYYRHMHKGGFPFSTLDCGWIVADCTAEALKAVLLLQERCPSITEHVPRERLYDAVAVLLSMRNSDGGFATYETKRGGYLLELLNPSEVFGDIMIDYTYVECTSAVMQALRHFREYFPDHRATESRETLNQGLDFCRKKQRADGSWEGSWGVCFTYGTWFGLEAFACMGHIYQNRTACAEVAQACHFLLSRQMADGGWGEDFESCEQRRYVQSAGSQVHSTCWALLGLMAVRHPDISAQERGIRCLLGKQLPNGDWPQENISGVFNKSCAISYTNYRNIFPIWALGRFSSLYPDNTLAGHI
As to the kind of experiment: Inhibition of cholesterol biosynthesis: oxidosqualene cyclase in rat liver microsomes (TLC or HPLC assay). The settings on record: 37°C, 45 minutes, 60µM ³H-squalene, 2.0mM NADPH, 0.01mM FAD, compounds tested at 0.0 to 100.0µM, read-out: Cyclase, IC₅₀. Format: biochemical. As for the experimental part: The following example illustrates the utility of compounds of formula (1) in inhibiting cholesterol biosynthesis. This example is understood to be illustrative only and is not intended to limit the scope of the present invention in any way. Microsomes, prepared by ultracentrifugation of homogenates of rat liver, are incubated at 37°C for 45 muinutes in the presence of 60µM ³H-squalene, 2.0mM NADPH, 0.01mM FAD, and the high speed supernatant fraction from the microsomal preparation. Blanks, in which NADPH has been omitted, are run simultaneously with the test compounds. Compounds are tested at concentrations of 0.0 to 100.0µM.
• a) TLC Assay: Following incubation, the samples are saponified, standards are added to each sample, and then the reaction products are extracted into hexane. […] Spots containing the reaction products are scraped from the TLC plates and counted for ³H-radioactivity in a scintillation counter. An IC₅₀ for squalene epoxidase and oxidosqualene cyclase is calculated. • b) HPLC Assay: Following incubation, reactions are stopped by the addition of chloroform:methanol, standards are added, then reaction products and standards are extracted into chloroform. […] Chromatographic peaks containing reaction products are monitored for ³H- radioactivity with a flow-through scintillation counter connected in series with the HPLC column. […]
On the technique in general: Liver microsomes are a subcellular fraction often used to study metabolism.

Molecules are shown by their SMILES.

As to `CC(C)CCSCCCCCN1CCCCC1` [Compound A], the IC50 was found to be 24 µM.
The result for `CCSCCN1CCCCC1` [Compound E, 2-(1-piperidyl)ethyl ethyl sulfide] reads more than 100 µM.
